{"source": "ChEMBL document CHEMBL3822377", "about": "“Locking PDK1 in DFG-out conformation through 2-oxo-indole containing molecules: Another tools to fight glioblastoma” (Eur J Med Chem, 2016)", "key": {"[1]": {"molecular_target": "PI3-kinase p110-delta/p85-alpha (Homo sapiens) (UniProt P27986+O00329)", "assay": "Inhibition of His-tagged full-length human PIK3CD/PIK3R1 expressed in baculovirus system at 100 nM by adapta assay"}, "[2]": {"molecular_target": "Phosphatidylinositol 4,5-bisphosphate 3-kinase catalytic subunit gamma isoform (Homo sapiens) (UniProt P48736)", "sequence (P48736 whole entry, looked up, canonical isoform)": "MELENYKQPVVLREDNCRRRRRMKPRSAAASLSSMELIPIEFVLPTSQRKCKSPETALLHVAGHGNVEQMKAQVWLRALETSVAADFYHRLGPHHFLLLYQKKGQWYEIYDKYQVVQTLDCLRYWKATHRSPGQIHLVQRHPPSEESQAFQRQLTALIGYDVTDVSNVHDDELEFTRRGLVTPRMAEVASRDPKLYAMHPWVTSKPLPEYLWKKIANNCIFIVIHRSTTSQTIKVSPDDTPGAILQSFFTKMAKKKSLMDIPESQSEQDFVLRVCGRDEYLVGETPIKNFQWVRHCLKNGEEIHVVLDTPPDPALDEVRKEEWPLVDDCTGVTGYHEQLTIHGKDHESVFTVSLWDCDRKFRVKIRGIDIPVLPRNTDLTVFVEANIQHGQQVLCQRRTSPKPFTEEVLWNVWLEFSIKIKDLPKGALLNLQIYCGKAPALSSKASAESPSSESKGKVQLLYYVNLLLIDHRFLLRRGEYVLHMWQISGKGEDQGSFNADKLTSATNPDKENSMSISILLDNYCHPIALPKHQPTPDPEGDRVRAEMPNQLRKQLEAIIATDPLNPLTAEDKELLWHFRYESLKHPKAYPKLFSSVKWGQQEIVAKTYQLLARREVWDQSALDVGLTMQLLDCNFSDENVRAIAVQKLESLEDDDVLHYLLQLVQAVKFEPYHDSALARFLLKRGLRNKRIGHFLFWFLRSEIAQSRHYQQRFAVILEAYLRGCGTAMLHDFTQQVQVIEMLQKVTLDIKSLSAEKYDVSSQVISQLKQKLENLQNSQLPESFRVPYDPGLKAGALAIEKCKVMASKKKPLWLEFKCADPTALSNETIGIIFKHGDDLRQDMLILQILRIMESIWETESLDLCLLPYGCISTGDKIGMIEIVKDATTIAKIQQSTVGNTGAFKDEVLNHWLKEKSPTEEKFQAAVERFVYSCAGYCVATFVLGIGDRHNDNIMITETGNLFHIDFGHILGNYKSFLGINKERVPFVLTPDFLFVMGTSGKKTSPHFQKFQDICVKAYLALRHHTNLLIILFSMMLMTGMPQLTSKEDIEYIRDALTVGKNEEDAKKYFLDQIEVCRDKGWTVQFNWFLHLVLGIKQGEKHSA", "assay": "Inhibition of His-tagged full-length human PIK3CG expressed in baculovirus system at 100 nM by adapta assay"}, "[3]": {"molecular_target": "RAC-alpha serine/threonine-protein kinase (Homo sapiens) (UniProt P31749)", "assay": "Inhibition of His-tagged full-length human AKT1 expressed in baculovirus system at 100 nM by Z-lyte assay"}, "[4]": {"molecular_target": "RAC-beta serine/threonine-protein kinase (Homo sapiens) (UniProt P31751)", "assay": "Inhibition of His-tagged full-length human AKT2 expressed in baculovirus system at 100 nM by Z-lyte assay"}, "[5]": {"molecular_target": "AMP-activated protein kinase, AMPK (Homo sapiens) (UniProt P54646+O43741+P54619+Q9UGJ0+Q9Y478+Q13131+Q9UGI9)", "assay": "Inhibition of GST/His-tagged full-length human recombinant AMPK A2/B1/G1 expressed in baculovirus system at 100 nM by Z-lyte assay"}, "[6]": {"molecular_target": "Aurora kinase A (Homo sapiens) (UniProt O14965)", "sequence (O14965 whole entry)": "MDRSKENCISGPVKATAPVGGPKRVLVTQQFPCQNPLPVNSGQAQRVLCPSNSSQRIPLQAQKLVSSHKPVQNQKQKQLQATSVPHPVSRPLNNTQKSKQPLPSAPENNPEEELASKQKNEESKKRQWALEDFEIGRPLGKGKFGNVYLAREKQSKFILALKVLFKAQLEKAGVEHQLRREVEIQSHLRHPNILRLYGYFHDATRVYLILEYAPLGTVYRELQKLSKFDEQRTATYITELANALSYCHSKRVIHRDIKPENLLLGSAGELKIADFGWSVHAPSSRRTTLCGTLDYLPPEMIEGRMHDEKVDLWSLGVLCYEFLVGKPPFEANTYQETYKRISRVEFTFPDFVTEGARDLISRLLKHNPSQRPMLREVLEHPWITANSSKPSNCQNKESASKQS", "assay": "Inhibition of His-tagged full-length recombinant human Aurora A expressed in baculovirus system at 100 nM by Z-lyte assay"}, "[7]": {"molecular_target": "Calcium/calmodulin-dependent protein kinase type II subunit alpha (Homo sapiens) (UniProt Q9UQM7)", "assay": "Inhibition of His-tagged full-length human CaMKII alpha expressed in baculovirus system at 100 nM by Z-lyte assay"}, "[8]": {"molecular_target": "CDK2/Cyclin A2 (Homo sapiens) (UniProt P24941+P20248)", "assay": "Inhibition of GST-tagged human CDK2/Cyclin A expressed in baculovirus system at 100 nM by Z-lyte assay"}, "[9]": {"molecular_target": "Cyclin-dependent kinase 5/CDK5 activator 1 (Homo sapiens) (UniProt Q00535+Q15078)", "sequence (Q00535 whole entry)": "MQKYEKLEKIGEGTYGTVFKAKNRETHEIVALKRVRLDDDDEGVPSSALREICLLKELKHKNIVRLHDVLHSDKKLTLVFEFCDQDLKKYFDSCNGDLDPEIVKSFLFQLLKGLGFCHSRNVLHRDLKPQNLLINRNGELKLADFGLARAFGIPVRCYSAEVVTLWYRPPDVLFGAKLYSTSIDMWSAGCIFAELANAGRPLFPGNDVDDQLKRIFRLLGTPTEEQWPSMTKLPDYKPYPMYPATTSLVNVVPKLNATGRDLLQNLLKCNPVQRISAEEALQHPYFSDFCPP", "sequence (Q15078 99-307 partner limits assumed)": "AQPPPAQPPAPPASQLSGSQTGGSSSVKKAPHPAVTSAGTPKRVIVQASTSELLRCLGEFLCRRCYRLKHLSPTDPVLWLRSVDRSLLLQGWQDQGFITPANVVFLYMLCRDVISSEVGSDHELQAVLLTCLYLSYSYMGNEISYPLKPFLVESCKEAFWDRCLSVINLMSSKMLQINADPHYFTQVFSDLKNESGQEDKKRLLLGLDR", "assay": "Inhibition of His-tagged full-length human CDK5/p35 expressed in baculovirus system at 100 nM by Z-lyte assay"}, "[10]": {"molecular_target": "Casein kinase II subunit alpha' (Homo sapiens) (UniProt P19784)", "sequence (P19784 whole entry, looked up)": "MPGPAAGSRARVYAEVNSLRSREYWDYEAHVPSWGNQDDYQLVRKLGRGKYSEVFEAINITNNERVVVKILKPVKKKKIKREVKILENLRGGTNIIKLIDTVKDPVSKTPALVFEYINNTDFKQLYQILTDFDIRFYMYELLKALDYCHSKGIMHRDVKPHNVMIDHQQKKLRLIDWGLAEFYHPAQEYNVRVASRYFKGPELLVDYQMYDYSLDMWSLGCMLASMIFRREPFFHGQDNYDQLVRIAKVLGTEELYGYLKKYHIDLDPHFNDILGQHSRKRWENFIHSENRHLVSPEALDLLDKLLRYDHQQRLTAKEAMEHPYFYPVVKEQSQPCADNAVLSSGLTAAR", "assay": "Inhibition of GST-tagged full-length human recombinant CSNK2A2 expressed in baculovirus system at 100 nM by Z-lyte assay"}, "[11]": {"molecular_target": "Tyrosine-protein kinase Lck (Homo sapiens) (UniProt P06239)", "assay": "Inhibition of His-tagged full-length human LCK expressed in baculovirus system at 100 nM by Z-lyte assay"}, "[12]": {"molecular_target": "Mitogen-activated protein kinase 1 (Homo sapiens) (UniProt P28482)", "assay": "Inhibition of GST-tagged full-length human MAPK1 expressed in Escherichia coli at 100 nM by Z-lyte assay"}, "[13]": {"molecular_target": "Mitogen-activated protein kinase 14 (Homo sapiens) (UniProt Q16539)", "assay": "Inhibition of GST-tagged full-length human MAPK14 (direct) expressed in Escherichia coli at 100 nM by Z-lyte assay"}, "[14]": {"molecular_target": "Mitogen-activated protein kinase 9 (Homo sapiens) (UniProt P45984)", "sequence (P45984 whole entry, looked up)": "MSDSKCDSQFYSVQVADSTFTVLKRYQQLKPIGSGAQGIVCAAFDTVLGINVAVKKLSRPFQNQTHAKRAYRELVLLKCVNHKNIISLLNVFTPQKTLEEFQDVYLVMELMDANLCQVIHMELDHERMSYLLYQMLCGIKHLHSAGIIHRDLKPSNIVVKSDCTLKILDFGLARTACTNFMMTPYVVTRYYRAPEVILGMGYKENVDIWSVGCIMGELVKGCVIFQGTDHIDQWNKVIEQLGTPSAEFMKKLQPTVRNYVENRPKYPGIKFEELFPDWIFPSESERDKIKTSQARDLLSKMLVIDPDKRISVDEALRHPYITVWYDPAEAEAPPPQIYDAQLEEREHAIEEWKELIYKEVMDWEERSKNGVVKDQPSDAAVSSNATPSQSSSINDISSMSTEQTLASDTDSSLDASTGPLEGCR", "assay": "Inhibition of His-tagged full-length recombinant human MAPK9 expressed in baculovirus system at 100 nM by Z-lyte assay"}, "[15]": {"molecular_target": "Protein kinase C alpha type (Homo sapiens) (UniProt P17252)", "assay": "Inhibition of His-tagged full-length human PRKACA expressed in Escherichia coli system at 100 nM by Z-lyte assay"}, "[16]": {"molecular_target": "Protein kinase C alpha type (Homo sapiens) (UniProt P17252)", "assay": "Inhibition of full-length human PRKCA expressed in baculovirus system at 100 nM by Z-lyte assay"}, "[17]": {"molecular_target": "Protein kinase C beta type (Homo sapiens) (UniProt P05771)", "sequence (P05771 2-671 limits assumed)": "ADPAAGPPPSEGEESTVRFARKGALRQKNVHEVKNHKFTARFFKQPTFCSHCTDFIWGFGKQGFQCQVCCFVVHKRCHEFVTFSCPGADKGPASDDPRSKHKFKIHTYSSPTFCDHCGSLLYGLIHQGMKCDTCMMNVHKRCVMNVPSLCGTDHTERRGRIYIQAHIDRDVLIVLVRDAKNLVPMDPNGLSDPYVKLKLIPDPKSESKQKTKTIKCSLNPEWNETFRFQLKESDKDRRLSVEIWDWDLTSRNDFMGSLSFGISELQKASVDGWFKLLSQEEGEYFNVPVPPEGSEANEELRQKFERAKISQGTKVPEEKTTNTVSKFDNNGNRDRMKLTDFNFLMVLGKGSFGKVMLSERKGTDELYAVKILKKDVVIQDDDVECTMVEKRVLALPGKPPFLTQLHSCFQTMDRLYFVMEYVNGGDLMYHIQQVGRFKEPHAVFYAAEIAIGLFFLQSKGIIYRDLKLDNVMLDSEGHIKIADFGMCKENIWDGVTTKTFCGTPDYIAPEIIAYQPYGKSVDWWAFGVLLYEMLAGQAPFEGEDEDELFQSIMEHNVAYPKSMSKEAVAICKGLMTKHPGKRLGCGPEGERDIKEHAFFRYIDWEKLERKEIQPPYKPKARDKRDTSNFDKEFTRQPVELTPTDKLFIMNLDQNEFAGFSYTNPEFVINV", "assay": "Inhibition of full-length human PRKCB1 expressed in baculovirus system at 100 nM by Z-lyte assay"}, "[18]": {"molecular_target": "Protein kinase C zeta type (Homo sapiens) (UniProt Q05513)", "assay": "Inhibition of full-length recombinant human PRKCZ expressed in baculovirus system at 100 nM by Z-lyte assay"}, "[19]": {"molecular_target": "Ribosomal protein S6 kinase beta-1 (Homo sapiens) (UniProt P23443)", "sequence (P23443 whole entry, looked up)": "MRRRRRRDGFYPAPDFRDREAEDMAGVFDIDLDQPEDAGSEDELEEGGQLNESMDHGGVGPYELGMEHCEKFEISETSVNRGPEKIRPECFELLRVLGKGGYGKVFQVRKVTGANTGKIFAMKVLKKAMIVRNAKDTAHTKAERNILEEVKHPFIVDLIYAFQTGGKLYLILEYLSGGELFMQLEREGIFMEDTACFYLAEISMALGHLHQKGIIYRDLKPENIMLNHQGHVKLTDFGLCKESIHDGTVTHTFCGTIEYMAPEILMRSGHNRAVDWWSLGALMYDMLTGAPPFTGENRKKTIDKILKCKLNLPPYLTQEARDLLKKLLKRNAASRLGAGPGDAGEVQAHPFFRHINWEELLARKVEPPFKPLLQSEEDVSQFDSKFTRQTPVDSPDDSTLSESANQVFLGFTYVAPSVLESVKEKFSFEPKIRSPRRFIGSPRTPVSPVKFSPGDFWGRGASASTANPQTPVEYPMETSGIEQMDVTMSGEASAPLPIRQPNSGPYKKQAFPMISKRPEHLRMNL", "assay": "Inhibition of catalytic GST-tagged human RPS6KB1 expressed in baculovirus system at 100 nM by Z-lyte assay"}, "[20]": {"assay": "(§1) Antiproliferative activity against human U87MG cells after 72 hrs by MTS assay", "format": "functional, cell-based, U-87MG ATCC", "conditions": "U-87 MG"}, "[21]": {"tested_on": "U-87MG ATCC", "assay": "as §1", "format": "functional, cell-based"}, "[22]": {"tested_on": "U-87 MG", "assay": "Induction of apoptosis in human U87MG cells assessed as late apoptotic cells by measuring phosphatidylserine externalisation at 10 uM after 72 hrs in presence of 7-amino-actinomysin by AnnexinV/FITC staining-based flow cytometry (reference value: 4.46%)", "format": "functional, U-87MG ATCC"}, "[23]": {"tested_on": "U-87 MG", "assay": "Induction of apoptosis in human U87MG cells assessed as early apoptotic cells by measuring phosphatidylserine externalisation at 10 uM after 72 hrs by AnnexinV/FITC staining-based flow cytometry (reference value: 6.39%)", "format": "functional, U-87MG ATCC"}, "[24]": {"tested_on": "U-87 MG", "assay": "Induction of apoptosis in human U87MG cells assessed as live cells by measuring phosphatidylserine externalisation at 10 uM after 72 hrs by AnnexinV/FITC staining-based flow cytometry (reference value: 87.05%)", "format": "functional, U-87MG ATCC"}, "[25]": {"tested_on": "GSC", "assay": "Antiproliferative activity against human GSC cells at 0.001 to 1 uM after 4 days by MTS assay", "format": "functional, cell-based"}, "[26]": {"assay": "(§2) Antiproliferative activity against human GSC cells after 7 days by MTS assay", "format": "functional, cell-based", "conditions": "168 h"}, "[27]": {"tested_on": "GSC", "assay": "as §2", "format": "functional, cell-based"}, "[28]": {"molecular_target": "T1, 3-phosphoinositide-dependent protein kinase 1 (Homo sapiens) (UniProt O15530)", "T1 sequence (whole entry)": "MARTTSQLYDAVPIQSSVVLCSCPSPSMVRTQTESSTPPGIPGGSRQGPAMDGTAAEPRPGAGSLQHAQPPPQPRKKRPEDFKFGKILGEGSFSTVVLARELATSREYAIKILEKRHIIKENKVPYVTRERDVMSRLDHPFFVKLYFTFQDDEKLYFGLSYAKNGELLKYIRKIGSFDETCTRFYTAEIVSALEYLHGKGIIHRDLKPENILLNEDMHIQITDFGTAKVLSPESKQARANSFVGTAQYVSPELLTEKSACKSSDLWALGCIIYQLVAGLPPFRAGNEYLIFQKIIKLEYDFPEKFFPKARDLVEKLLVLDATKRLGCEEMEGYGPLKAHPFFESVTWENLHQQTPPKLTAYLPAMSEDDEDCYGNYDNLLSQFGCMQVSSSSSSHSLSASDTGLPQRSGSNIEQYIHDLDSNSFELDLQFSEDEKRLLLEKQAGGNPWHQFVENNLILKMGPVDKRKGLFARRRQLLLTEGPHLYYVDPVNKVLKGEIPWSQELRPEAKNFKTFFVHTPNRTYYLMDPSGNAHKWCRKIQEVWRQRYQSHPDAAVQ", "assay": "Inhibition of PDK1 in human U87MG cells assessed as reduction in AKT phosphorylation at Thr308 residue at 10 uM measured at 120 mins by ELISA relative to control", "format": "cell-based", "conditions": "U-87MG ATCC"}, "[29]": {"molecular_target": "T1, 3-phosphoinositide-dependent protein kinase 1 (Homo sapiens)", "assay": "Inhibition of PDK1 in human GSC cells assessed as reduction in AKT phosphorylation at Thr308 residue at 10 uM measured at 120 mins by ELISA relative to control", "format": "cell-based"}}, "note": "The source made the active and inactive calls. No cut-off for these calls is given here."}
{"smiles": "O=C(CNC(=O)c1cccn(Cc2ccc(F)c(F)c2)c1=O)Nc1ccc2c(c1)/C(=C/c1cnc[nH]1)C(=O)N2", "values": [{"measurement": "inhibition", "setting": "[1]", "result": 17, "unit": "%"}, {"measurement": "inhibition", "setting": "[2]", "result": 2, "unit": "%"}, {"measurement": "inhibition", "setting": "[3]", "result": -8, "unit": "%"}, {"measurement": "inhibition", "setting": "[4]", "result": -4, "unit": "%"}, {"measurement": "inhibition", "setting": "[5]", "result": 10, "unit": "%"}, {"measurement": "inhibition", "setting": "[6]", "result": 38, "unit": "%"}, {"measurement": "inhibition", "setting": "[7]", "result": 0, "unit": "%"}, {"measurement": "inhibition", "setting": "[8]", "result": 4, "unit": "%"}, {"measurement": "inhibition", "setting": "[9]", "result": 2, "unit": "%"}, {"measurement": "inhibition", "setting": "[10]", "result": 3, "unit": "%"}, {"measurement": "inhibition", "setting": "[11]", "result": 9, "unit": "%"}, {"measurement": "inhibition", "setting": "[12]", "result": 6, "unit": "%"}, {"measurement": "inhibition", "setting": "[13]", "result": 3, "unit": "%"}, {"measurement": "inhibition", "setting": "[14]", "result": -1, "unit": "%"}, {"measurement": "inhibition", "setting": "[15]", "result": -5, "unit": "%"}, {"measurement": "inhibition", "setting": "[16]", "result": 0, "unit": "%"}, {"measurement": "inhibition", "setting": "[17]", "result": -10, "unit": "%"}, {"measurement": "inhibition", "setting": "[18]", "result": -3, "unit": "%"}, {"measurement": "inhibition", "setting": "[19]", "result": -6, "unit": "%"}, {"measurement": "IC50", "setting": "[20]", "result": 450, "unit": "nM"}, {"measurement": "inhibition", "setting": "[21]", "result": "Dose-dependent effect"}, {"measurement": "Activity", "setting": "[22]", "result": 5.65, "unit": "%"}, {"measurement": "Activity", "setting": "[23]", "result": 17.3, "unit": "%"}, {"measurement": "Activity", "setting": "[24]", "result": 76.41, "unit": "%"}, {"measurement": "Activity", "setting": "[25]", "result": "Active"}, {"measurement": "IC50", "setting": "[26]", "result": 3.36, "unit": "nM"}, {"measurement": "Activity", "setting": "[27]", "result": "Dose-dependent effect"}, {"measurement": "inhibition", "setting": "[28]", "result": 19.6, "unit": "%"}, {"measurement": "inhibition", "setting": "[29]", "result": 80.4, "unit": "%"}]}
